Like-named read-outs stand apart in the source and are kept apart here.
What was measured:
[1] = tested on: ZIKV-RLuc (Cambodian strain FSS13025); test: microbe, parasite or virus in culture; format: cell-based, Zika virus; settings: for AC50: Zika virus, Vero
[2] = read-out: Log AC50 (M) (converted)

Row | SMILES | CC-v2 (curve class classification v2 of the dose response curve) [1] | Efficacy (difference between neutral response and maximum compound response) [1] | Max Resp (difference between neutral response and compound response for highest compound concentration) [1] | AC50 [1] [M] | AC50 [1, 2] [M] | AC50 (Vero cells) [µM] | Log AC50 (M) (Vero cells)
1 | C/C=C(/C)C(=O)O[C@H]1C(C)=C2[C@H]([C@@H]1OC(=O)CCCCCCC)[C@@](C)(OC(C)=O)C[C@H](OC(=O)CCC)[C@@]1(O)[C@H]2OC(=O)[C@@]1(C)O [NCGC00261947-01] | -1.2 | -69.727 | -98.941 | 3.29e-06 | 3.29e-06 | 3.29 | -5.4827
2 | COc1ccc(-c2oc3cc(O)c(OC)c(O)c3c(=O)c2OC)cc1O [NCGC00385612-01] | -1.2 | -71.455 | -72.562 | 1.17e-06 | 1.17e-06 | 1.17 | -5.9327
3 | CC1OC(OC2C(OC3C(OC4CCC5(C)C(CCC6(C)C5CC=C5C7CC(C)(C)CCC7(C(=O)O)C(O)CC56C)C4(C)C)OC(C(=O)O)C(O)C3O)OC(CO)C(OC3OCC(O)C(OC4OC(CO)C(O)C4O)C3O)C2OC2OC(C)C(O)C(O)C2O)C(O)C(O)C1O (stereo not drawn) [NCGC00380107-01] | -2.1 | -79.638 | -81.884 | 1.28e-05 | 1.28e-05 | 12.8 | -4.894
4 | Cc1ccc(C(N)=O)cc1Nc1nccc(-c2cn(C(C)C)c3cnccc23)n1 [NCGC00263020-01] | -1.1 | -104.089 | -98.725 | 7.37e-06 | 7.37e-06 | 7.37 | -5.1327
5 | CC(C)C(=O)O[C@H]1[C@@H]2[C@H](C)C(=O)O[C@@H]2C[C@@H](C)[C@@H]2C=CC(=O)[C@]21C [NCGC00347562-02] | -3 | -106.49 | -96.985 | 2.28e-05 | 2.28e-05 | 22.8 | -4.6425
6 | CS[C@H]1SC[C@@H]2C(=O)N(C)[C@H](C(C)C)C(=O)OC[C@H](NC(=O)c3cnc4ccccc4n3)C(=O)N[C@H](C)C(=O)N(C)[C@H]1C(=O)N(C)[C@H](C(C)C)C(=O)OC[C@H](NC(=O)c1cnc3ccccc3n1)C(=O)N[C@H](C)C(=O)N2C [NCGC00163548-01] | -1.1 | -94.296 | -94.115 | 1.82e-06 | 1.82e-06 | 1.82 | -5.7408
7 | O=C1NC(=O)/C(=C/c2ccc3nccc(-c4ccncc4)c3c2)S1 [NCGC00346509-02] | -1.1 | -91.751 | -97.47 | 1.47e-06 | 1.47e-06 | 1.47 | -5.8327
8 | CCN(CC)CCNC(=O)c1c(C)[nH]c(/C=C2\C(=O)Nc3ccc(F)cc32)c1C [NCGC00164631-04] | -2.1 | -103.003 | -99.557 | 1.17e-05 | 1.17e-05 | 11.7 | –
9 | C=C(C)C1Cc2c(cc(O)c3c2OC2COc4cc(OC)c(OC)cc4C2(O)C3=O)O1 (stereo not drawn) [NCGC00347649-02] | -1.1 | -91.85 | -97.372 | 9.28e-08 | 9.27e-08 | 0.0927 | –
10 | NC1(c2ccc(-c3nc4ccn5c(=O)[nH]nc5c4cc3-c3ccccc3)cc2)CCC1 [NCGC00186465-01] | -2.1 | -117.339 | -99.979 | 1.85e-05 | 1.85e-05 | 18.5 | -4.7327
11 | C[C@@H]1O[C@@H](O[C@H]2[C@H](OC(=O)[C@]34CCC(C)(C)C[C@H]3C3=CCC5[C@@]6(C)C[C@H](O)[C@H](O[C@@H]7O[C@H](C(=O)O)[C@@H](O)[C@H](O)[C@H]7O)[C@@](C)(CO)C6[C@H](O)C[C@@]5(C)[C@]3(C)CC4)OC[C@H](O)[C@@H]2O)[C@H](O)[C@H](O)[C@H]1O[C@@H]1OC[C@@H](O)[C@H](O[C@@H]2OC[C@](O)(CO)[C@H]2O)[C@H]1O (stereo partly drawn) [NCGC00380219-01] | -2.1 | -96.8 | -99.643 | 1.16e-05 | 1.16e-05 | 11.6 | -4.9345
12 | Cc1ccc(C(=O)Nc2ccc(CN3CCN(C)CC3)c(C(F)(F)F)c2)cc1C#Cc1cnc2cccnn12 [NCGC00263152-01] | -1.1 | -88.579 | -98.949 | 1.85e-06 | 1.85e-06 | 1.85 | -5.7327
13 | C[C@@H](Oc1cc(-n2cnc3ccc(CN4CCN(C)CC4)cc32)sc1C(N)=O)c1ccccc1C(F)(F)F [NCGC00263112-01] | -2.1 | -113.144 | -99.466 | 6.76e-06 | 6.76e-06 | 6.76 | -5.1699
14 | C[C@@H]1C[C@H]2C3CCC4=CC(=O)C=C[C@@]4(C)[C@@]3(Cl)[C@@H](O)CC2(C)[C@@]1(OC(=O)c1ccco1)C(=O)CCl (stereo partly drawn) [NCGC00164596-01] | -1.1 | -109.905 | -100.212 | 1.04e-05 | 1.04e-05 | 10.4 | -4.9827
15 | CN(C)Cc1c(C(=O)NCCOc2ccc(C(=O)NO)cc2)oc2ccccc12 [NCGC00346486-01] | -1.1 | -96.645 | -98.785 | 9.28e-06 | 9.27e-06 | 9.28 | -5.0327
16 | CCN(CC)Cc1ccc2cc(COC(=O)Nc3ccc(C(=O)NO)cc3)ccc2c1 [NCGC00346743-01] | -1.2 | -68.967 | -98.985 | 2.61e-06 | 2.61e-06 | 2.61 | -5.5827
17 | CC(C)(O)/C=C\C(=O)[C@](C)(O)[C@H]1[C@H](O)C[C@]2(C)[C@@H]3CC=C4[C@@H](C=C(O)C(=O)C4(C)C)[C@]3(C)C(=O)C[C@@]12C [NCGC00014911-01] | -1.1 | -103.985 | -99.739 | 3.29e-06 | 3.29e-06 | 3.29 | -5.4827
18 | COc1ccc2c(c1)CN(C(=O)CCN1CCC(Cc3ccccc3)CC1)CCS2 [NCGC00384450-01] | -3 | -97.233 | -83.243 | 3.69e-05 | 3.69e-05 | 36.9 | -4.4327
19 | CCN1CCN(CC(=O)Nc2ccc(-c3cccc4c(=O)cc(N5CCOCC5)oc34)c3sc4ccccc4c23)CC1 [NCGC00250387-03] | -2.4 | -68.382 | -59.211 | 2.33e-05 | 2.33e-05 | 23.3 | -4.6327
20 | CCCCc1oc2ccccc2c1C(=O)c1cc(I)c(OCCN(CC)CC)c(I)c1 [NCGC00015096-17] | -2.1 | -100.133 | -98.715 | 1.85e-05 | 1.85e-05 | 18.5 | -4.7327
21 | COc1cc(OC2CCN(C)CC2)ccc1Nc1ncc2c(n1)n(C1CCCC1)c(=O)n2C [NCGC00263090-01] | -1.2 | -50.634 | -54.42 | 6.76e-06 | 6.76e-06 | 6.76 | -5.1699
22 | CNC(=O)c1cccc(-c2ccc3c(N4CCOC[C@@H]4C)nc(N4CCOC[C@@H]4C)nc3n2)c1 [NCGC00346698-01] | -2.2 | -76.837 | -71.465 | 1.65e-05 | 1.65e-05 | 16.5 | -4.7827
23 | CCCCN(CCCC)CCC(O)c1cc2c(Cl)cc(Cl)cc2c2cc(C(F)(F)F)ccc12 (stereo not drawn) [NCGC00179250-04] | -2.2 | -95.793 | -79.925 | 2.93e-05 | 2.93e-05 | 29.3 | -4.5327

Reference: publication PMC8765781, “A platform of assays for the discovery of anti-Zika small-molecules with activity in a 3D-bioprinted outer-blood-retina model” (PLoS ONE, 2022)
